Laboratory results reported in article PMC9920413, “New Bicyclic Pyridine-Based Hybrids Linked to the 1,2,3-Triazole Unit: Synthesis via Click Reaction and Evaluation of Neurotropic Activity and Molecular Docking” (Molecules, 2023).
Where “and” joins values, the source holds several entries; their conditions need not be identical. Identical values can stand only once.

Key:
[1] = test system: pentylenetetrazole (PTZ)-induced convulsions; assay: Antagonism to pentylenetetrazole (PTZ) convulsions; assay type: in vivo; details: for ED50: Mus musculus, mice, i.p. 45 min before PTZ 90 mg/kg s.c., confidence limits in brackets, p = 0.05, read-out: ED50 (by PTZ antagonism); for TI: therapeutic index TI = LD50/ED50
Description: (§1) The study of the anticonvulsant activity of hybrids 7a–u was assessed by evaluating the antagonism to pentylenetetrazole (PTZ), thiosemicarbazide convulsive seizures, and maximal electroshock-induced seizures (MES). The PTZ-induced test is considered an experimental model for the clonic component of epilepsy seizures and the prognostic anxiolytic activity of the compounds. PTZ is a common convulsive agent used in animal models to investigate the mechanisms of seizures. The model of thiosemicarbazide (TSC) seizures (affecting the exchange of GABA) causes clonic seizures similar to pentylenetetrazole ones. The MES test is used as an animal model for the generalization of tonic seizures in epilepsy. The neurotoxicity and side effects of the compounds (movement coordination disorder, myorelaxation, and ataxia) were also studied on mice with the “rotating rod”[29] test.
The anticonvulsant effect of the newly synthesized compounds was investigated by tests comprising pentylenetetrazole, thiosemicarbazide convulsions, and maximal electroshock (MES). Outbred mice (weight 18–22 g) were used for the study. […] Each animal is placed into an individual plastic cage for observation lasting 1 h. Seizures and clonic convulsions were recorded. […] The control animals were administered as an emulsifier. Every dose of each test compound was studied in six animals.
(§2) Adverse neurotoxic (muscle relaxant) effects of compounds were studied at doses of 50 to 500 mg/kg when administered intraperitoneally, as well as reference drugs in effect at anticonvulsant doses. Myorelaxation was investigated with the test of a “rotating rod” in mice. To this end, mice were planted on a metal rod with a corrugated rubber coating, which rotated at a speed of 5 revolutions per minute. The number of animals that cnot stay on it for 2 min was determined. To determine the ED50, neurotoxic TD50, and LD50, the statistical method of penetration by Litchfield and Wilcoxon was used.

[2] = Rotating rod test (neurotoxicity, myorelaxation); assay type: in vivo; details: outbred, mouse, in vivo, ip, mice, myorelaxation in 50% of animals
Description: as §1, §2

[3] = in vivo; details: outbred, mouse, in vivo; mice, dead animals after 24 h
Description: as §2

[4] = test system: thiosemicarbazide (TSC)-induced convulsions; assay: Thiosemicarbazide (TSC) seizures; assay type: in vivo, mice; details: mice; for response vs control in vivo at 100 mg/kg: Mus musculus, ip, compound 100 mg/kg i.p., relative to control = 1.0, read-out: Latency of Convulsions, Induced by TSC, I (index of latent period of TSC seizures); for Latency of Convulsions, Induced by TSC, M ± M: compound 100 mg/kg i.p. 45 min before TSC 18 mg/kg s.c.
Description: as §1
Thiosemicarbazide, an antimetabolite of GABA inhibitor (glutamic acid decarboxylase) in the brain, is administered subcutaneously to mice at a dose of 18 mg/kg as a 0.5% solution, which causes clonic convulsions in animals. Anti-thiosemicarbazide activity was evaluated based on the latency time of the onset of seizures. Compounds were administered intraperitoneally at doses of 100 mg/kg in suspension with carboxymethylcellulose and Tween-80 45 min before administration of thiosemicarbazide.

[5] = test system: rats; assay: Open field test; assay type: in vivo; details: 50 mg/kg i.p.; for Cells Examination, amount (absolute data during 5 min): control 2.4 ± 0.67; for Vertical Displacement, amount (absolute data during 5 min): control 7.0 ± 2.14; for Horizontal Displacement, amount (absolute data during 5 min): control 21.6 ± 2.25
Description: Open field test. The research-motor behavior of rats was studied on a modified “open field” model. For this purpose, an installation was used, the bottom of which is divided into squares with holes (cells). Experiments were performed in the daytime with natural light. Within 5 min of the experiment, the indicators of sedative and activating behavior were determined, namely the number of horizontal movements, standing on the hind legs (vertical movements), and sniffing of the cells. The number of animals on this model was eight for each compound, control, and reference drug.

[6] = test system: mouse; assay: Elevated plus maze (EPM) test; assay type: in vivo; details: 50 mg/kg i.p., 5 min; for Number of Entries into the Closed Arms: control 9.4 ± 1.6; for Time Spent in the Center: control 28.2 ± 3.12; for Time Spent in Closed Arms: control 269.2 ± 10.4
Excerpt: Elevated plus maze—EPM test. Anti-anxiety and sedative effects were studied on mouse a model of the “elevated plus maze”. The labyrinth is a cruciform machine raised above the floor, with a pair of open and closed sleeves opposed to each other. Normal animals prefer to spend most of their time in the closed (dark) sleeves of the labyrinth. The anxiolytic effect of the compounds was estimated by the increase in the number of entries into open (light) sleeves and the time spent in them without increasing the total motor activity. This records the time spent in the closed sleeve and the number of attempts to enter the installation center. In the above model, the test compounds and the reference drug were injected intraperitoneally before the experiments. The control animals were administered as an emulsifier. Results were processed statistically (p < 0.05).

[7] = test system: rats; assay: Electroshock retrograde amnesia, conditioned response of passive avoidance (CRPA); assay type: in vivo; details: 50 mg/kg, study for 5 min; for The Time Spent in the Light Chamber during the Training of the CRPA, First Day: control 280.0 ± 7.5; for The Time Spent in the Light Chamber When Playing CRPA + MESH after 24 h, Second Day: control 281.0 ± 6.1
Description: Test for learning and memory. The antiamnesic properties of the compounds were studied using an electroshock amnesia model modified by J. Bures, O. Buresova. In rats, a conditioned passive avoidance reaction (CRPA) to a dark-light setting was developed, while the training of the animals with CRPA was recorded. The residence times in the light and dark compartments were recorded for 5 min (300 s). Then, in the dark compartment, the animal received a single current shock (0.4 mA) through the electrode floor (training). To obtain amnesia, a maximum electroconvulsive seizure is induced in animals (conducting a maximum electric current of 50 Hz for 0.2 s through corneal electrodes). Conducting an electric shock immediately after training causes the erasure of the memory trace. The test for reproduction is carried out 24 h after training—after the development of CRPA. During this period, the control animals forget the training and prefer to be in the dark part of the chamber. An increase in the time spent by rats in the light compartment compared to the control on the second day indicates the presence of antiamnestic properties of the compounds.

[8] = test system: mice; assay: Forced swimming test; details: 50 mg/kg, 6 min; for Total Time of Immobilization: control 42.0 ± 7.24; for Total Time of Active Swimming: control 318.0 ± 8.36;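 for all read-outs here: mice made to swim in a water-filled glass vessel under natural light, with durations of active swimming and immobility recorded across the 6 min session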
Description: Forced swimming test. To assess “despair and depression”, the “compelling swimming” model was used. Experimental animals were forced to swim in a glass container (height 22 cm, diameter 14 cm), filled 1/3 with water. […] The latent period of immobilization, the total duration of active swimming and immobilization are fixed at 6 min (the experiments were conducted under natural light).

SMILES | ED50 [1] | TI [1] | TD50 at 2 min [2] | LD50 at 24 h [3] | response vs control in vivo at 100 mg/kg [4] | Latency of Convulsions, Induced by TSC, M ± M [4] | Cells Examination, amount (absolute data during 5 min) [5] | Vertical Displacement, amount (absolute data during 5 min) [5] | Horizontal Displacement, amount (absolute data during 5 min) [5] | Time Spent in the Open Arms ([6]; control 2.6 ± 1.6) | Number of Entries into the Closed Arms [6] | Time Spent in the Center [6] | Time Spent in Closed Arms [6] | The Time Spent in the Light Chamber during the Training of the CRPA, First Day [7] | The Time Spent in the Light Chamber When Playing CRPA + MESH after 24 h, Second Day [7] | Total Time of Immobilization [8] | Total Time of Active Swimming [8] | Time Spent in the Open Arms ([6]; control 2.6 ± 1.6, 50 mg/kg)
Cc1nc(N2CCN(C(=O)Cn3cc(COc4nc(C(C)C)c5c(c4C#N)CCC5)nn3)CC2)c(C#N)c2c1COC(C)(C)C2 [7a, 6-{4-[(4-{[(4-Cyano-1-isopropyl-6,7-dihydro-5H-cyclopenta[c]pyridin-3-yl)oxy]methyl}-1H-1,2,3-triazol-1-yl)acetyl]piperazin-1-yl}-3,3,8-trimethyl-3,4-dihydro-1H-pyrano [3,4-c]pyridine-5-carbonitrile] | 20 mg/kg | 44.5 | > 500 mg/kg | 890 mg/kg | 430% | 43.0 ± 5.2 min | 8.6 ± 1.89 | 6.8 ± 3.42 | 44.4 ± 10.1 | 15.0 ± 2.1 s | 5.6 ± 2.1 | 22.4 ± 3.99 s | 262.6 ± 14.6 s | 286.0 ± 4.3 s | 298.0 ± 6.9 s | 18.6 ± 3.2 s | 341.4 ± 6.2 s | 
Cc1nc(N2CCN(C(=O)Cn3cc(COc4nc(-c5ccco5)c5c(c4C#N)CCCC5)nn3)CC2)c(C#N)c2c1COC(C)(C)C2 [7j, 6-(4-{[4-({[4-Cyano-1-(2-furyl)-5,6,7,8-tetrahydroisoquinolin-3-yl]oxy}methyl)-1H-1,2,3-triazol-1-yl]acetyl}piperazin-1-yl)-3,3,8-trimethyl-3,4-dihydro-1H-pyrano [3,4-c]pyridine-5-carbonitrile] | 22 mg/kg | 42.3 | > 500 mg/kg | 930 mg/kg | 410% | 41.0 ± 3.95 min | 9.8 ± 3.53 | 10 ± 3.39 | 54.6 ± 10.03 | 19.6 ± 3.5 s | 5.9 ± 2.1 | 19.2 ± 4.15 s | 261.2 ± 20.8 s | 293.0 ± 7.2 s | 120.0 ± 5.8 s | 14.0 ± 3.37 s | 346.0 ± 11.35 s | 
Cc1nc(OCc2cn(CC(=O)N3CCN(c4nc(C)c5c(c4C#N)CC(C)(C)OC5)CC3)nn2)c(C#N)c2c1COC(C)(C)C2 [7m, 6-{4-[(4-{[(5-Cyano-3,3,8-trimethyl-3,4-dihydro-1H-pyrano [3,4-c]pyridin-6-yl)oxy]methyl}-1H-1,2,3-triazol-1-yl)acetyl]piperazin-1-yl}-3,3,8-trimethyl-3,4-dihydro-1H-pyrano [3,4-c]pyridine-5-carbonitrile] | 15 mg/kg | 54.7 | > 500 mg/kg | 820 mg/kg | 366% | 36.6 ± 1.11 min | 13.4 ± 5.56 | 12 ± 3.95 | 59.8 ± 9.58 |  | 6.4 ± 1.11 | 48.8 ± 5.14 s | 175.4 ± 6.23 s | 282.0 ± 6.8 s | 296.0 ± 5.4 s | 5.0 ± 1.2 s | 355.0 ± 5.0 s | 66.4 s and 66.4 ± 7.78 s
CCCc1nc(OCc2cn(CC(=O)N3CCN(c4nc(CCC)c5c(c4C#N)CC(C)(C)OC5)CC3)nn2)c(C#N)c2c1COC(C)(C)C2 [7u, 6-{4-[(4-{[(5-Cyano-3,3-dimethyl-8-propyl-3,4-dihydro-1H-pyrano [3,4-c]pyridin-6-yl)oxy]methyl}-1H-1,2,3-triazol-1-yl)acetyl]piperazin-1-yl}-3,3-dimethyl-8-propyl-3,4-dihydro-1H-pyrano [3,4-c]pyridine-5-carbonitrile] | 32 mg/kg | 21.3 | > 500 mg/kg | 680 mg/kg | 438% | 43.8 ± 1.03 min | 2.2 ± 1.03 | 3.6 ± 0.67 | 41.8 ± 6.12 | 20.0 ± 3.12 s | 4.4 ± 2.1 | 36.2 ± 2.38 s | 243.8 ± 20.7 s |  |  | 84.0 ± 12.5 s | 276.0 ± 26.0 s | 
